Data from US20050032243A1, “Method and apparatus for rapid determination of ligand-protein binding using charcoal adsorption” (priority 2001, published 2005).

Key:
[1] = system: HSA; settings: literature reference value; cited from earlier work
[2] = molecular target: T1, human serum albumin (HSA) (Homo sapiens, UniProt P02768); experiment: in vitro
Protocol: Solutions were allowed to incubate at room temperature for 30 minutes and 200 μl samples were loaded onto the DCC cartridge. Elution was initiated and samples collected under vacuum at 5, 10 and 60 seconds.
(§1) Ultrafiltration Experiments. […] Samples (0.5 ml) were centrifuged (1500×g; 3 minutes) at 25° C.
0.1 μCi/ml) in isotonic PBS and dilutions of a 40 mg/ml HSA solution were prepared. Solutions were allowed to incubate at room temperature for 30 minutes and 200 μl samples were loaded onto the DCC cartridge. Elution was initiated and samples were collected under vacuum at 1 second and at 60 seconds. Adsorption of each ligand also was evaluated after 2 hours of DCC exposure.
as §1
Evaluation of Alternative HSA Site I-Specific Ligands.
The relationship between the extent of adsorption and the unbound fraction for each ligand can be described by Equation 1. y=yo+a(1−e^−bx) Equation 1

[3] = molecular target: T1, human serum albumin (HSA); experiment: Time course of ligand adsorption in packed-bed DCC cartridge in the presence of HSA; settings: HSA 40 mg/ml, at termination of experiment (5 minutes)
Protocol: Model Ligand Adsorption Experiments in the DCC Cartridge. […] Charcoal adsorption experiments were conducted in the packed-bed DCC cartridge (20 mg, 10% DCC). Cartridges were prepared and preconditioned with a 40-mg/ml solution of HSA. […] 200 μl samples were loaded onto the DCC cartridge. Elution was initiated and samples collected under vacuum at 1, 2, 5, 10, 20, 40, 60, 120 and 300 seconds.
Ligand Adsorption Experiments in the DCC Cartridge. […] Charcoal adsorption experiments were conducted in a packed-bed DCC cartridge (20 mg DCC, 10% w/w). Cartridges were prepared and preconditioned with a 40 mg/ml solution of HSA. […] 200 μl samples were loaded onto the DCC cartridge. Elution was initiated and samples collected under vacuum at 1, 2, 5, 10, 20, 40, 60, 120 and 300 seconds.

[4] = 1 minute DCC exposure, mean ± SE

T1 sequence (P02768 25-609): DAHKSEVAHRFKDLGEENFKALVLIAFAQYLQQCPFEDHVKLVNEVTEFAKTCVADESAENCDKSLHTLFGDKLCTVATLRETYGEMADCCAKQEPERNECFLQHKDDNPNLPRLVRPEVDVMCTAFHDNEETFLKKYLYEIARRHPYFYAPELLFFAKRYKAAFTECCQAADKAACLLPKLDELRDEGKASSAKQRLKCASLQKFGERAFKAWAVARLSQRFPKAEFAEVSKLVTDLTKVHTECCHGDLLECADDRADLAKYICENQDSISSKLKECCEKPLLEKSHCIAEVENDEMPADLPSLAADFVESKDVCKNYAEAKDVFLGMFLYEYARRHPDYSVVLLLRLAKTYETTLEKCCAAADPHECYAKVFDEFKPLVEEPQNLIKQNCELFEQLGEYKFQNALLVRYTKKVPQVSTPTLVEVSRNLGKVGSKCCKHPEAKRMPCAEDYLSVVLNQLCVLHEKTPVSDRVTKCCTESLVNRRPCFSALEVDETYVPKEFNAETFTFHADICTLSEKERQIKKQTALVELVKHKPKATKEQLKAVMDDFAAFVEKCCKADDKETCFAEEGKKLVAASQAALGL

Which “UNBOUND FRACTION” value [1] does the source give for CCCC(CCC)C(=O)O [[^3H]-VPA, valproic acid, valproate] here?
Its value is 0.1.

What about the “a (empirical parameter of Equation 1)” value [2] of the same compound?
Its value is 82.9 ± 8.6.

And the “b (empirical parameter of Equation 1)” value [2]?
Its value is 1.5 ± 0.4.

And the “Yo (intercept of Equation 1, extent of adsorption at unbound fraction 0)” value ([2]; human)?
The value was 27.0 ± 4.1.

What about the fraction unbound at 10 mg/ml ([2]; human) of the same compound?
The fraction unbound at 10 mg/ml was about 0.8.

With N[C@@H](Cc1c[nH]c2ccccc12)C(=O)O [[^3H]-TRP, L-tryptophan] as the compound, how does the “UNBOUND FRACTION” value [1] read?
Its value is 0.5.

With CC(C)NCC(O)COc1cccc2ccccc12 (stereo not drawn) [[^3H]-PRO, propanonol] as the compound, how does the “UNBOUND FRACTION” value [1] read?
The value was 0.13.

Which “adsorption to DCC in the presence of HSA” value [3] does the source give for C[C@H]1O[C@@H](O[C@H]2[C@@H](O)C[C@H](O[C@H]3[C@@H](O)C[C@H](O[C@H]4CC[C@@]5(C)[C@H](CC[C@@H]6[C@@H]5CC[C@]5(C)[C@@H](C7=CC(=O)OC7)CC[C@]65O)C4)O[C@@H]3C)O[C@@H]2C)C[C@H](O)[C@@H]1O [[^3H]-DIGT, digitoxin] here?
Its value is about 100%.

And the “UNBOUND FRACTION” value [1]?
The value was 0.05.

And the “Yo (intercept of Equation 1, extent of adsorption at unbound fraction 0)” value [2, 4]?
Its value is 0.

And the “a (empirical parameter of Equation 1)” value [2, 4]?
The value was 95.6 ± 0.3.

And the “b (empirical parameter of Equation 1)” value [2, 4]?
The value was 29.5 ± 0.7.

And the “DCC adsorption as unbound fraction approached 0.2” value ([2]; 1 minute of charcoal exposure)?
Its value is “nearly complete”.

With O=C1NC(=O)C(c2ccccc2)(c2ccccc2)N1 [[^3H]-DPH, diphenylhydantion] as the compound, how does the “UNBOUND FRACTION” value [1] read?
The value was 0.12.

And the “adsorption after 1 minute of exposure to DCC, restricted or not” value [2]?
Its value is “not restricted”.
